# From publication PMC7101356, “Cross-site and cross-platform variability of automated patch clamp assessments of drug effects on human cardiac currents in recombinant cells” (Scientific Reports, 2020)
# Experiments:
# [1] = target: hCav1.2 (Homo sapiens, UniProt Q13936); assay: Automated patch clamp, hCav1.2 current block
# [2] = based on CiPA evaluations; cited from earlier work
# [3] = target: hERG (Homo sapiens, UniProt Q12809); assay: Automated patch clamp, hERG current block (consensus step-ramp protocol); settings: for hERG K+ current inhibition, Mean, at maximal concentration: max conc [mol/L]: bep 3.00E-07, cpz 3.00E-06, cis 3.00E-07, dil 1.00E-04, dof 1.00E-07, mex 1.00E-04, ond 1.00E-05, qui 1.00E-05, ran 1.00E-04, sot 3.00E-04, ter 3.00E-07, ver 1.00E-06; for hERG K+ current inhibition, Mean, at minimal concentration: min conc [mol/L]: bep 1.00E-08, cpz 1.00E-07, cis 1.00E-09, dil 3.00E-06, dof 1.00E-09, mex 1.00E-06, ond 3.00E-07, qui 1.00E-07, ran 3.00E-06, sot 1.00E-05, ter 1.00E-08, ver 3.00E-08
# Chain of hERG (Q12809 whole entry): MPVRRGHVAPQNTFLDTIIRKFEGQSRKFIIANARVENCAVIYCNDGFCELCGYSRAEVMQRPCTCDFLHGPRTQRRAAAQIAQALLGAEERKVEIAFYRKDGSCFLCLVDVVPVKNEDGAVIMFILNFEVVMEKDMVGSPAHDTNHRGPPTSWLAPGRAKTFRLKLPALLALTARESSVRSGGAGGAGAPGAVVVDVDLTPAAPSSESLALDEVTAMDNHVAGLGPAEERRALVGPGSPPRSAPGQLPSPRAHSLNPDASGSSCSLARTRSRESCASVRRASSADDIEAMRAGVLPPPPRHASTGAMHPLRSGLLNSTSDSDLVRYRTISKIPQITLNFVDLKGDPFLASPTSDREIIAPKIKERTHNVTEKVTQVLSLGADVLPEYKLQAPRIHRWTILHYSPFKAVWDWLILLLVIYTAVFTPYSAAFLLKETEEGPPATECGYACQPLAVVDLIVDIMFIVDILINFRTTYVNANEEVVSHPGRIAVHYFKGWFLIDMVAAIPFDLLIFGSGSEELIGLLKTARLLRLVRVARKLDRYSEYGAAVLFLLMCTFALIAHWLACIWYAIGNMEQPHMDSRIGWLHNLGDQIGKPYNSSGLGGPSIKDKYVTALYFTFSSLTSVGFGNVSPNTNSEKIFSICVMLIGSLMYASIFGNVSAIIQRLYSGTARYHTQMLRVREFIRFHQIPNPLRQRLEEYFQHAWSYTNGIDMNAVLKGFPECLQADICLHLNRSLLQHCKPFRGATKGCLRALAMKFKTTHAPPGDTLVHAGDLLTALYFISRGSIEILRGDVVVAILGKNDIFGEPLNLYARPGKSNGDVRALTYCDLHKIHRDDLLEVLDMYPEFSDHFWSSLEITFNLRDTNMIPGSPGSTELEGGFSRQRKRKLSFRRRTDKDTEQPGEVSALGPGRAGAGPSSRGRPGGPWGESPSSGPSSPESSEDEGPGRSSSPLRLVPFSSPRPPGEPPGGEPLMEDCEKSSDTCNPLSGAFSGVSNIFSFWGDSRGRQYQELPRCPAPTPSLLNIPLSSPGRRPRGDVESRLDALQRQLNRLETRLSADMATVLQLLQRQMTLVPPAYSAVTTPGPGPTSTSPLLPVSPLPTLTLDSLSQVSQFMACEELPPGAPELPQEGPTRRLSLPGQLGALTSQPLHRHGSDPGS
# [4] = s03_p2, HEK293, room temperature
# [5] = s16_p3, HEK293, room temperature
# Chain of hCav1.2 (Q13936 whole entry): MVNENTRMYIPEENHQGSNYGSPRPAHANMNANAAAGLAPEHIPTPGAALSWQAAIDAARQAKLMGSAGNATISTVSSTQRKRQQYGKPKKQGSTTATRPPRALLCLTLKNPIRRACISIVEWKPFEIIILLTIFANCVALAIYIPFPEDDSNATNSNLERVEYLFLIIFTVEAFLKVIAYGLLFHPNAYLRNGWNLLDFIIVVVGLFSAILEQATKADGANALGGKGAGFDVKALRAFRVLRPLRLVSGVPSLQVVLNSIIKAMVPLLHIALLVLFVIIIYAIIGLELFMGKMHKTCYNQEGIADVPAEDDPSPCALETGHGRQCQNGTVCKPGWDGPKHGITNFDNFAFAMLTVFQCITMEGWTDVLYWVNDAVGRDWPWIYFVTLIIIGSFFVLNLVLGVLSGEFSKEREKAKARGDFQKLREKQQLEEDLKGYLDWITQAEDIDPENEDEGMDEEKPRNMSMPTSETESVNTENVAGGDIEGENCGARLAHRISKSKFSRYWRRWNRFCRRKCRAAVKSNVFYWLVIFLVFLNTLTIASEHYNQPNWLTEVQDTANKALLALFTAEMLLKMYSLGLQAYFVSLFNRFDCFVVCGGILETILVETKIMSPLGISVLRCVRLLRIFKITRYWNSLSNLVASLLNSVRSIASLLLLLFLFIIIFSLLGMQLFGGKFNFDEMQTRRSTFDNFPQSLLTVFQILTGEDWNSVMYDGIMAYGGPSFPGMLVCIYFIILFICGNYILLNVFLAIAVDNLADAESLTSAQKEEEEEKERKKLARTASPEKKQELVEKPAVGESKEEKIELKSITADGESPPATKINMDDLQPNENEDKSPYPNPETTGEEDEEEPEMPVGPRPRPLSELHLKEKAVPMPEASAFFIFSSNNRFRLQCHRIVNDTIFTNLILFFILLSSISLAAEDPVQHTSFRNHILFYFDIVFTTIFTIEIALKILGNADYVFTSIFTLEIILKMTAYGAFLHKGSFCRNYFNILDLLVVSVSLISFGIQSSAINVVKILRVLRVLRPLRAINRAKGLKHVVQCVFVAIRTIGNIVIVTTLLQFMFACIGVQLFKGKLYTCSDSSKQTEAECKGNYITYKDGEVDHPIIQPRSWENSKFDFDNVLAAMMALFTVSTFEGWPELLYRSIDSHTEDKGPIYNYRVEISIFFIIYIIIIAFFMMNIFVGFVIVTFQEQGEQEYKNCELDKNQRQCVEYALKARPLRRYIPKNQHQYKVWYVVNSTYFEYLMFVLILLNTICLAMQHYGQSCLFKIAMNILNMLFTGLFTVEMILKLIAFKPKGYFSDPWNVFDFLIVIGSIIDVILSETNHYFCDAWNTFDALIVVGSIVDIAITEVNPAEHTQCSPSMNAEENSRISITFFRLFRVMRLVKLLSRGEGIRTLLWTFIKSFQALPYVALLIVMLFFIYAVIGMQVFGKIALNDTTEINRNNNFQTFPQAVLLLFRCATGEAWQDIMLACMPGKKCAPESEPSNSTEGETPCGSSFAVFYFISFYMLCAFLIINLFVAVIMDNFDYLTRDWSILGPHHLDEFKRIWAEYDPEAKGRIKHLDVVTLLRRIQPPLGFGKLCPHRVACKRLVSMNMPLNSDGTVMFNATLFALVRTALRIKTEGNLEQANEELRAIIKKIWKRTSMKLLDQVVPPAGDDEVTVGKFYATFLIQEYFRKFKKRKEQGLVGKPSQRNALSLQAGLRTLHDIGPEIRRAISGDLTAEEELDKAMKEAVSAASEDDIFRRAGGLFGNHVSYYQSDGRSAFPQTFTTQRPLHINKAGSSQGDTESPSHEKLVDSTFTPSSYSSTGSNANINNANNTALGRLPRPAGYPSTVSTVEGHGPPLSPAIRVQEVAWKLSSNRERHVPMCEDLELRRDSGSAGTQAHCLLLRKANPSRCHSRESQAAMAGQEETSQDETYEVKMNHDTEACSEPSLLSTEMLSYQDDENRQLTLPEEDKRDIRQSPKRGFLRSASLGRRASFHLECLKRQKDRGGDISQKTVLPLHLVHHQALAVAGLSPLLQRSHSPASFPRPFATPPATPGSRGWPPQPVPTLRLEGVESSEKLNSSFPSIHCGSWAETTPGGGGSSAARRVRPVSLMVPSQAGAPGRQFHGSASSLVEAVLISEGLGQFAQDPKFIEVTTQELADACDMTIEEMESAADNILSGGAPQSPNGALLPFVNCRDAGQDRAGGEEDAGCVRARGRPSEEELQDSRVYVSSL
# Chain of hCav1.2 (Q08289 whole entry partner): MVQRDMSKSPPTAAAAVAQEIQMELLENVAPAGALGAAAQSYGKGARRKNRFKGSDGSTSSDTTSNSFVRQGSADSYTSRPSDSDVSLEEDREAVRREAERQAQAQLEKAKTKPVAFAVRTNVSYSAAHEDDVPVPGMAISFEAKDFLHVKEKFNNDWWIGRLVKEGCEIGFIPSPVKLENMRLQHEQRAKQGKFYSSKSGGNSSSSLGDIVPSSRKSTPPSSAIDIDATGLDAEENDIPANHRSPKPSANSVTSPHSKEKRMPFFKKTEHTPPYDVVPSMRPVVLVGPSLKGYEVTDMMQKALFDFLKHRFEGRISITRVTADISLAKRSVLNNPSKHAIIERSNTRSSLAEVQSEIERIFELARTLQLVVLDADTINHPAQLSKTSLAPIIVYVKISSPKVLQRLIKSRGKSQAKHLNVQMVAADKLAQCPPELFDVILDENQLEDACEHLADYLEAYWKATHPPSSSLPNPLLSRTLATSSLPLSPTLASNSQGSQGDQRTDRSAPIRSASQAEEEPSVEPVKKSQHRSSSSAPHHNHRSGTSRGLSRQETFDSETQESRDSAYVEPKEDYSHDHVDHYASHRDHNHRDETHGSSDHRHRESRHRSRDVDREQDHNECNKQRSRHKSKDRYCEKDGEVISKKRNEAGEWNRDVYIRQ
# Chain of hCav1.2 (P54289 25-956 partner limits assumed): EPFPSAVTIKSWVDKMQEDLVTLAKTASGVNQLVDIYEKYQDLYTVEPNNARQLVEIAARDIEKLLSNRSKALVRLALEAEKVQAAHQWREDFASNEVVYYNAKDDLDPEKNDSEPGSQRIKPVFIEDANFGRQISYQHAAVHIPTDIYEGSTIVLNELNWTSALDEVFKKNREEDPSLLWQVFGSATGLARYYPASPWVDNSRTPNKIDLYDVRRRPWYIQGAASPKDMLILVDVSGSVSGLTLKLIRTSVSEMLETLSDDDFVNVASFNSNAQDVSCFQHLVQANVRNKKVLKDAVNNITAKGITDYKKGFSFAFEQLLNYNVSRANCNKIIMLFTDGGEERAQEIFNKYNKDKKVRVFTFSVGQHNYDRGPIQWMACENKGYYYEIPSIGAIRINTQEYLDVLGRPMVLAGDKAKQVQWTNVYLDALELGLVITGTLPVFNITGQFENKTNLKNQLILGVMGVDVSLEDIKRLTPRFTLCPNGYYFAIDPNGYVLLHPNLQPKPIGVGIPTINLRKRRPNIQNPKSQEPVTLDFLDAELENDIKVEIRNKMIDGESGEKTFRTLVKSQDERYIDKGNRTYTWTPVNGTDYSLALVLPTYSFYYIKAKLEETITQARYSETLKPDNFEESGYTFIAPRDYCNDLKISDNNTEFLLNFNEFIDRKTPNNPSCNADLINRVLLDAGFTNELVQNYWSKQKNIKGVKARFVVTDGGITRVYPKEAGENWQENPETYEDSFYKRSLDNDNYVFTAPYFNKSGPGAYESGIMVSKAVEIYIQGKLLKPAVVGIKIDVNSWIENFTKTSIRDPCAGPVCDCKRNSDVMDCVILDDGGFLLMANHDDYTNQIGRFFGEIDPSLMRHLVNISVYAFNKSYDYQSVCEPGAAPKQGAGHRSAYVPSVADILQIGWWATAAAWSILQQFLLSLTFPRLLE
# Chain of hCav1.2 (P54289 957-1103 partner limits assumed): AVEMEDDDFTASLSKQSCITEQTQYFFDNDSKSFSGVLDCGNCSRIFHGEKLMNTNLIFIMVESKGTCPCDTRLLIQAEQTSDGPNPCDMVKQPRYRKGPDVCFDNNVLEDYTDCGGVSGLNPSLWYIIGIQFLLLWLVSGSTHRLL
smiles,measurement,setting,value
"Cc1cccc(C)c1OCC(C)N (stereo not shown) [mex, mexiletine]","nH, Hill slope",[1]; site s06_p4,0.87
same,"Peak hCav1.2 Ca2+ current inhibition, Mean","[1]; site s06_p4, 1.00E-04 mol/L",39.1%
same,"Peak hCav1.2 Ca2+ current inhibition, Mean","[1]; site s06_p4, 1.00E-06 mol/L",0.5%
same,"log IC50, half-maximal inhibitory concentration",[1]; site s11_p1,no inh.
same,"Peak hCav1.2 Ca2+ current inhibition, Mean","[1]; site s11_p1, 1.00E-04 mol/L",22.9%
same,"Peak hCav1.2 Ca2+ current inhibition, Mean","[1]; site s11_p1, 1.00E-06 mol/L",12.9%
same,"nH, Hill slope",[1]; site s14_p1,2.00
same,"Peak hCav1.2 Ca2+ current inhibition, Mean","[1]; site s14_p1, 1.00E-04 mol/L",16.2%
same,"Peak hCav1.2 Ca2+ current inhibition, Mean","[1]; site s14_p1, 1.00E-06 mol/L",-17.7%
same,"nH, Hill slope",[1]; site s16_p3,0.80
same,"Peak hCav1.2 Ca2+ current inhibition, Mean","[1]; site s16_p3, 1.00E-04 mol/L",31.7%
same,"Peak hCav1.2 Ca2+ current inhibition, Mean","[1]; site s16_p3, 1.00E-06 mol/L",-0.3%
same,"nH, Hill slope",[1]; site s18_p1,1.07
same,"Peak hCav1.2 Ca2+ current inhibition, Mean","[1]; site s18_p1, 1.00E-04 mol/L",35.7%
same,"Peak hCav1.2 Ca2+ current inhibition, Mean","[1]; site s18_p1, 1.00E-06 mol/L",2.3%
same,TdP Risk Category,[2],Low
same,IC50,"[3]; hERG K+ current log IC50, s01_p1, CHO, 23 °C",138 µM
same,IC50,"[3]; hERG K+ current log IC50, s02_p2, HEK293, 22–26 °C",110 µM
same,IC50,"[3]; hERG K+ current log IC50, s03_p2, HEK293, room temperature",20.4 µM
same,IC50,"[3]; hERG K+ current log IC50, s04_p3, CHO, room temperature",47.9 µM
same,IC50,"[3]; hERG K+ current log IC50, s15_p1, HEK293, 22–23 °C",24 µM
same,IC50,"[3]; hERG K+ current log IC50, s16_p3, HEK293, room temperature",85.1 µM
same,inhibition at 0.0001 mol/L,"[3]; human, hERG K+ current inhibition, Mean, site_platform s07_p5, 1.00E-04 mol/L",65%
same,inhibition at 1e-06 mol/L,"[3]; human, hERG K+ current inhibition, Mean, site_platform s07_p5, 1.00E-06 mol/L",-10.5%
same,"inhibition at 4 min, 0.0001 mol/L","[3]; human, hERG K+ current inhibition, Mean, site_platform s10_p3, 1.00E-04 mol/L",42%
same,"inhibition at 4 min, 1e-06 mol/L","[3]; human, hERG K+ current inhibition, Mean, site_platform s10_p3, 1.00E-06 mol/L",-3.5%
same,"inhibition at 7 min, 0.0001 mol/L","[3]; human, hERG K+ current inhibition, Mean, site_platform s11_p1, 1.00E-04 mol/L",73.7%
same,inhibition at 0.0001 mol/L,"[3]; human, hERG K+ current inhibition, Mean, site_platform s12_p2, 1.00E-04 mol/L",56.6%
same,inhibition at 1e-06 mol/L,"[3]; human, hERG K+ current inhibition, Mean, site_platform s12_p2, 1.00E-06 mol/L",0.2%
same,inhibition at 0.0001 mol/L,"[3]; human, hERG K+ current inhibition, Mean, site_platform s13_p2, 1.00E-04 mol/L",78.6%
same,inhibition at 1e-06 mol/L,"[3]; human, hERG K+ current inhibition, Mean, site_platform s13_p2, 1.00E-06 mol/L",7.7%
same,"inhibition at 7 min, 0.0001 mol/L","[3]; human, hERG K+ current inhibition, Mean, site_platform s14_p1, 1.00E-04 mol/L",60.2%
same,"inhibition at 7 min, 1e-06 mol/L","[3]; human, hERG K+ current inhibition, Mean, site_platform s14_p1, 1.00E-06 mol/L",10.8%
same,"inhibition at 7 min, 1e-06 mol/L","[3]; human, recombinant cells expressing hERG, hERG K+ current inhibition, Mean, site_platform s11_p1, 1.00E-06 mol/L",29.4%
same,IC50,"[3]; log IC50, hERG K+ current inhibition, site_platform s07_p5",72.4 µM
same,IC50,"[3]; log IC50, hERG K+ current inhibition, site_platform s10_p3",126 µM
same,IC50,"[3]; log IC50, hERG K+ current inhibition, site_platform s11_p1",15.8 µM
same,IC50,"[3]; log IC50, hERG K+ current inhibition, site_platform s12_p2",77.6 µM
same,IC50,"[3]; log IC50, hERG K+ current inhibition, site_platform s13_p2",34.7 µM
same,IC50,"[3]; log IC50, hERG K+ current inhibition, site_platform s14_p1",63.1 µM
same,"hERG K+ current nH, Hill slope","[3]; s01_p1, CHO, 23 °C",0.78
same,"hERG K+ current inhibition, Mean, at maximal concentration","[3]; s01_p1, CHO, 23 °C",46.1%
same,"hERG K+ current inhibition, Mean, at minimal concentration","[3]; s01_p1, CHO, 23 °C",0.7%
same,"hERG K+ current nH, Hill slope","[3]; s02_p2, HEK293, 22–26 °C",0.95
same,"hERG K+ current inhibition, Mean, at maximal concentration","[3]; s02_p2, HEK293, 22–26 °C",48.2%
same,"hERG K+ current inhibition, Mean, at minimal concentration","[3]; s02_p2, HEK293, 22–26 °C",1.0%
same,"hERG K+ current nH, Hill slope",[3]; [4],0.95
same,"hERG K+ current inhibition, Mean, at maximal concentration",[3]; [4],86.8%
same,"hERG K+ current inhibition, Mean, at minimal concentration",[3]; [4],14.6%
same,"hERG K+ current nH, Hill slope","[3]; s04_p3, CHO, room temperature",0.81
same,"hERG K+ current inhibition, Mean, at maximal concentration","[3]; s04_p3, CHO, room temperature",67.4%
same,"hERG K+ current inhibition, Mean, at minimal concentration","[3]; s04_p3, CHO, room temperature",9.7%
same,hERG K+ current log IC50,"[3]; s05_p4, HEK293, 22–24 °C",-4.37 log mol/L
same,"hERG K+ current nH, Hill slope","[3]; s05_p4, HEK293, 22–24 °C",1.45
same,"hERG K+ current inhibition, Mean, at maximal concentration","[3]; s05_p4, HEK293, 22–24 °C",75.7%
same,"hERG K+ current nH, Hill slope","[3]; s15_p1, HEK293, 22–23 °C",0.72
same,"hERG K+ current inhibition, Mean, at maximal concentration","[3]; s15_p1, HEK293, 22–23 °C",74.6%
same,"hERG K+ current inhibition, Mean, at minimal concentration","[3]; s15_p1, HEK293, 22–23 °C",10.3%
same,"hERG K+ current nH, Hill slope",[3]; [5],0.76
same,"hERG K+ current inhibition, Mean, at maximal concentration",[3]; [5],52.6%
same,"hERG K+ current inhibition, Mean, at minimal concentration",[3]; [5],3.9%
same,"hERG K+ current nH, Hill slope","[3]; s18_p1, CHO, 35 °C",1.12
same,"hERG K+ current inhibition, Mean, at maximal concentration","[3]; s18_p1, CHO, 35 °C",70.4%
same,"hERG K+ current inhibition, Mean, at minimal concentration","[3]; s18_p1, CHO, 35 °C",-1.2%
same,"hERG K+ current nH, Hill slope","[3]; s19_p3, CHO, room temperature",0.84
same,"hERG K+ current inhibition, Mean, at maximal concentration","[3]; s19_p3, CHO, room temperature",58.4%
same,"hERG K+ current inhibition, Mean, at minimal concentration","[3]; s19_p3, CHO, room temperature",4.2%
same,"nH (Hill slope), hERG K+ current inhibition",[3]; site_platform s07_p5,1.95
same,"nH (Hill slope), hERG K+ current inhibition",[3]; site_platform s10_p3,1.32
same,"nH (Hill slope), hERG K+ current inhibition",[3]; site_platform s11_p1,0.41
same,"nH (Hill slope), hERG K+ current inhibition",[3]; site_platform s12_p2,1.12
same,"nH (Hill slope), hERG K+ current inhibition",[3]; site_platform s13_p2,1.01
same,"nH (Hill slope), hERG K+ current inhibition",[3]; site_platform s14_p1,0.63
